Reference: patent US20070160527A1, “Use of n-acetyl-d-aminoglycosamine in treatment of local lesions or systematic symptoms related to autoimmune reactions” (priority 2003, published 2007)

Key:
B16 tumor cells [1] = test: Animal test of regulating micro-heterology variation (B16 tumor cells inoculated on hind legs); assay type: in vivo, rats; conditions: 7 days, 3 times per day; for control of micro-heterology variation compared with the control group: rats inoculated with B16 tumor cells, intra-peritoneal, 1 ml
Text: In control group without the administration of the compound of formula (1), many proliferative corpuscles appeared in at least 40 among 50 rats within 1-3 days after the tumor cells were inoculated; many immature cells appeared within 3-5 days; and visible solid tumors finally appeared within about 10 days.

B16 tumor cells [2] = test: Cytological test of regulating micro-heterology variation; assay type: cell-based; conditions: final concentration 1 g/100 ml, incomplete 1640 medium, continued culture more than 48 hours; control cells could not proliferate
Protocol: Conventional incomplete 1640 culture media were used for cell culture, and B16 tumor cells (commericially obtained from the tumor cell library of Shanghai Institute of Cytobiology) were inoculated on said media. After continue culture for more than 48 hours, the micro-heterology variation of cells and the control effects of N-acetyl-D-glucosamine thereon were observed under a condition where metabolic wastes affected the growth environment. […] The control cells cultured without N-acetyl-D-glucosamine could not proliferate on the same culture media under same conditions.

[3] = Treatment of a patient with hyperthyroidism; assay type: in vivo, human; conditions: one patient, capsules 100 mg, 3 times per day, 7 days
Protocol: Patient was administered with capsules of the compound of formula (1) for consecutive 7 days, 3 times per day, and 100 mg every time, during the period of treating diarrhea.

[4] = Treatment of a patient with systemic lupus erythematosus; assay type: in vivo, human; conditions: one patient, capsules 100 mg, 3 times per day, 7 days
Protocol: Patient who had definite systemic lupus erythematosus, was administered with capsules of the compound of formula (1) for consecutive 7 days, 3 times per day, and 100 mg every time, during the period of hospitalization.

[5] = in vivo
Text: The toxicological test of the compound of formula (I) includes: • 1. Acute toxicity test: including tests of oral administration, intravenous injection administration, and maximum limit amount for administration; • 2. Ames test; • 3. Micronucleus test of mouse bone marrow cell; • 4. Abnormality test of mouse sperm; • 5. Aberration test of mouse testis chromosome; • 6. Chronic lethal test; • 7. Sub-chronic toxicity (feed for 90 days) test; • 8. Traditional deformity-inducing test.

Proteus Mirabilis = test: Promoting wave test (bio-wave model); assay type: cell-based; conditions: final concentration 0.5% in LB plate, 37° C., 9 hours, compared with control sample
Text: • 1. […] (+). […] Experimental results and evaluation:

Row | SMILES | control of micro-heterology variation compared with the control group (B16 tumor cells [1]) | cell proliferation under a condition where metabolic wastes affected the growth environment (B16 tumor cells [2]) | therapeutical effect on hyperthyroidism (confirmed by T3 and T4 in serum) [3] | patient's symptom [4] | dosage at which the acute toxicosis reaction had not appeared [5] | bio-wave pattern of bacterial growth (promoting wave function) (Proteus Mirabilis) | number of rats in which solid tumor did not appear (B16 tumor cells [1]; 50 rats, 5% aqueous solution intra-peritoneally, 1 ml every time)
1 | CC(=O)N[C@H]1C(O)O[C@H](CO)[C@@H](O)[C@@H]1O.Cl (stereo partly drawn) [N-acetyl-D-glucosamine hydrochloride] | exhibited function of controlling micro-heterology variation | cells could proliferate continuously |  |  |  |  | 
2 | CC(=O)N[C@@H]1[C@@H](O)[C@H](O)[C@@H](CO)O[C@H]1O [compound of formula (I), N-acetyl-D-glucosamine] | could control the micro-heterology variation | cell number stably increased with the culture time | better effect of treating hyperthyroidism | remitted in some extent | more than 2 g/kg | finer wave mode | 45
